Legend:
[1] = volatility of prior-art nitrification inhibitor; type: physicochemical; conditions: stated as disadvantageous for long-term applications
nitrification = experiment: inhibition of nitrification in soil incubation test; type: cell-based, soil microbial biomass; conditions: 100 g soil, 10 mg ammoniumsulfate-N, 20° C., 14 days, best obtained NI value
Method: The compounds of the invention have been tested as follows in terms of the inhibition of nitrification: 100 g soil is filled into 500 ml plastic bottles (e.g. soil sampled from the field) and is moistened to 50% water holding capacity. The soil is incubated at 20° C. for two weeks to activate the microbial biomass. 1 ml test solution, containing the compound in the appropriate concentration (usually 0.3 or 1% of nitrogen N), or DMSO and 10 mg nitrogen in the form of ammoniumsulfate-N is added to the soil and everything mixed well. Bottles are capped but loosely to allow air exchange. The bottles are then incubated at 20° C. for 0 and 14 days. For analysis, 300 ml of a 1% K2SO4-solution is added to the bottle containing the soil and shaken for 2 hours in a horizontal shaker at 150 rpm. Then the whole solution is filtered through a filter (Macherey-Nagel Filter MN 807¼). Ammonium and nitrate content is then analyzed in the filtrate in an autoanalyzer at 550 nm (Merck, AA11). The inhibition (NI @ a specified concentration) is calculated as follows: [formula]

| volatility [1] | SMILES | NI* @ 0.3% (nitrification; compound at 0.3% of nitrogen N) | NI* @ 1% (nitrification; compound at 1% of nitrogen N) |
| --- | --- | --- | --- |
| high volatility | CCOc1cc(C)[nH]n1 [3-ethoxy-5-methylpyrazole] |  |  |
|  | C#CCOc1ccn[nH]1 [Compound 1] | 60.6 | 74.7 |

Source: patent publication US11498885B2, “Use of pyrazole propargyl ethers as nitrification inhibitors” (BASF SE, priority 2018, dated 2022)
